The values that follow come from patent US20040229931A1, “1-Aryl-3-(indol-5-yl) prop-2-en-1-ones, compositions containing them and use” (Aventis Pharma S. A., priority 2003, published 2004).

For data set [1], the system named is C51 murine adenocarcinoma (colon tumor). Kind of data set: Evaluation of tumor necrosis in vivo. The conditions noted are these: 35 mg/kg, intravenous injection, 24 hours after treatment, female BALB/c mice; listed as EXAMPLE 2. The text has this:
Mice are bred either by IFFA-CREDO (Domaine des Oncins, 69210 L'Arbresle, France) from a breed obtained by Jackson Laboratories, Bar Harbor, Me., USA, or alternatively by Charles River France (76410 St Aubin les Elbeuf, France) from a breed obtained by Charles River, USA. The mice initially weigh more than 18 g at the start of the trial. They have free access to food (UAR reference 113, Villemoisson, 91160 Epinay sur Orge, France) and to water.
The tumors used are currently transplanted in our laboratories. All these tumors are at the Frederick Cancer Research Facility (Frederick, Md., USA) at the repository of frozen tumors of the National Cancer Institute (NCI), or at the American Type Culture Collection (ATCC, Rockville, Md., USA).
The techniques for tumor transplantation, chemotherapy and data analysis have been presented in detail (Corbett et al., 1982a; Corbett et al., 1982b).
To summarize, the animals necessary for one experiment are assembled and bilaterally implanted on day 0 (zero).
The growth of solid tumors develops freely up to the desired size. […]
The samples are then treated, cut into sections, stained with haematoxylin, eosin and saffron yellow, and are then examined […]. The tumor necrosis (necrosis±degeneration) is evaluated microscopically using a scale of extent from 0 to 5: […]
The necrosis due to the experiment was evaluated on an untreated control. […]

In a further data set the target is Herg receptors (Homo sapiens, UniProt Q12809). In words: Inhibition of Herg receptors (cardiac toxicity). The source says:
(§1) Another problem posed consisted in obtaining products having all the advantages described above without the disadvantages frequently encountered during the study of products of the chalcone family. These disadvantages are (i) the problems of cardiac toxicity, which can be evaluated by measuring the inhibition of Herg receptors, (ii) finally, and to a lesser degree, the problems of mutagenicity, which can be evaluated in particular in the Ames test.

A further data set has as its system HDMEC cells. In words: Inhibition of proliferation of endothelial cells HDMEC ([14C]thymidine incorporation). The conditions noted are these: Homo sapiens, Endothelial cell, 48 hours. The data set is classed as cell-based. The protocol:
The evaluation of the detachment of the endothelial cells in vitro is determined in the following manner. HDMEC cells (Human Dermal Microvascular Endothelial Cells, Promocell, c-122102) are cultured in an ECGM-MV medium which contains 5% foetal calf serum, growth factors (EGF 10 ng/ml, hydrocortisone 1 μg/ml, 0.4% growth supplement with heparin) and antibiotics (amphoteracin 50 ng/ml, gentamycin 50 μg/ml). For the detachment test, the HDMECs are inoculated at 5 000 cells in clear-bottomed 96-well plates (Costar) precoated with fibronectin (10 μg/ml) or vitronectin (1 μg/ml) or gelatin. Twenty-four hours later, the culture medium is replaced with ECGM-MV 0.1% BSA medium containing the products indicated. […] The fluorescence of the cells which remain attached to the substratum of the well is counted using a fluorimeter, Spectrafluor Plus (Tecan excitation 485 nm, and emission 535 nm). The data are the mean of six different samples and are expressed as the percentage of the control (untreated cells).
The proliferation of HeLa or HDMEC cells is evaluated by measuring the incorporation of [^14C]thymidine in the following manner. […] [^14C]Thymidine (0.1 μCi/well) and the products to be evaluated are then added. […] 48 hours after incubation at 37° C., the radioactivity incorporated into the cells is measured by counting the plate in a TR1-LUX counter (Wallac). […]

The subject of a further data set is HeLa cells. Kind of data set: Inhibition of proliferation of HeLa tumor cells ([14C]thymidine incorporation). The data set is classed as cell-based. The note with it: Homo sapiens, 48 hours, read-out: Inhibition of cell proliferation IC50, HeLa. As for the experimental part:
The proliferation of HeLa or HDMEC cells is evaluated by measuring the incorporation of [^14C]thymidine in the following manner. The HeLa cells (epithelial tumor cells of human origin) are cultured in a DMEM medium (Gibco) which contains 10% of foetal calf serum and antibiotics (1% penicillin, 1% streptomycin). To carry out the proliferation test, the cells are inoculated into 96-well Cytostar microplates (Amersham), at the rate of 5000 cells per well. [^14C]Thymidine (0.1 μCi/well) and the products to be evaluated are then added. Variable concentrations of products of up to 10 μM are used; the DMSO (solvent used to solubilize the products) should not exceed 0.5% in the medium. 48 hours after incubation at 37° C., the radioactivity incorporated into the cells is measured by counting the plate in a TR1-LUX counter (Wallac). The IC50 is defined as the concentration of compound which reduces by 50% the radioactivity compared with an untreated control.
On the technique in general: Dividing cells build labelled thymidine or BrdU into new DNA.

A short description of a further data set: Ames test (mutagenicity).
From the text: as §1
Background: The Ames test uses bacterial strains that need an amino acid and regain growth without it when mutated back.

The next data set addresses T1, Tubulin (Sus scrofa, UniProt P02550+P02554).
T1 construct: Tubulin is purified from pig brains according to published methods; from tissue; host or cells: pig brain
In words: Inhibition of polymerization of tubulin (turbidimetry). The note with it: pig brain tubulin 10 μM, turbidity at 350 nm, 37° C. The data set is classed as biochemical. The protocol: Tubulin is purified from pig brains according to published methods (Shelanski et al., Proc. Natl. Acad. Sci. USA, 70, 765-768. Weingarten et al., 1975, Proc. Natl. Acad. Sci. USA, 72, 1858-1862). Briefly, the brains are ground and centrifuged in an extraction buffer. The tubulin contained in the supernatant of the extract undergoes two successive cycles of polymerization at 37° C. and depolymerization at 4° C., before being separated from the MAPs (Microtubule Associated Proteins) by chromatography on a phosphocellulose P11 column (Whatman). The tubulin thus isolated is more than 95% pure. It is stored in a buffer called RB/2 30% glycerol whose composition is 50 mM MES-NaOH [2-(N-morpholino)ethanesulfonic acid], pH 6.8; 0.25 mM MgCl2; 0.5 mM EGTA; 30% glycerol (v/v), 0.2 mM GTP (guanosine-5′-triphosphate).
The polymerization of tubulin to microtubules is monitored by turbidimetry as follows: the tubulin is adjusted to a concentration of 10 μM (1 mg/ml) in RB/2 30% glycerol buffer to which 1 mM GTP and 6 mM MgCl2 are added. The polymerization is triggered by an increase in temperature from 6° C. to 37° C. in a cuvette having an optical path length of 1 cm, placed in a UVIKON 931 spectrophotometer (Kontron) equipped with a thermostated cuvette holder. The increase in the turbidity of the solution is monitored at 350 nm.
The compounds of this invention are dissolved at 10 mM in DMSO and added at variable concentrations (0.5 to 10 μM) to the tubulin solution before polymerization. The IC50 is defined as the concentration of compound which inhibits the rate of polymerization by 50%.

T1 sequence (P02550 whole entry): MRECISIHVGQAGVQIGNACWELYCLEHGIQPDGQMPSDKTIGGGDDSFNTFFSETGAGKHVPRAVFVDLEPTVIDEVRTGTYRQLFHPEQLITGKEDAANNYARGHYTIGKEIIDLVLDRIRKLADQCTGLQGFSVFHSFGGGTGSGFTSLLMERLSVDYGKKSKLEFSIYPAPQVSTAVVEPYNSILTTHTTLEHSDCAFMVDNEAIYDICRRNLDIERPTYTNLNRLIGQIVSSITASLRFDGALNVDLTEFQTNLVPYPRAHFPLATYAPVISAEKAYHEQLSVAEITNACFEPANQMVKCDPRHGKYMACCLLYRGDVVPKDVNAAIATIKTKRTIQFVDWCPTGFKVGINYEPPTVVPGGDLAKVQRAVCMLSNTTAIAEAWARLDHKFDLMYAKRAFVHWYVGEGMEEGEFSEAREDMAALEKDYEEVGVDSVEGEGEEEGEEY
T1 sequence (P02554 whole entry): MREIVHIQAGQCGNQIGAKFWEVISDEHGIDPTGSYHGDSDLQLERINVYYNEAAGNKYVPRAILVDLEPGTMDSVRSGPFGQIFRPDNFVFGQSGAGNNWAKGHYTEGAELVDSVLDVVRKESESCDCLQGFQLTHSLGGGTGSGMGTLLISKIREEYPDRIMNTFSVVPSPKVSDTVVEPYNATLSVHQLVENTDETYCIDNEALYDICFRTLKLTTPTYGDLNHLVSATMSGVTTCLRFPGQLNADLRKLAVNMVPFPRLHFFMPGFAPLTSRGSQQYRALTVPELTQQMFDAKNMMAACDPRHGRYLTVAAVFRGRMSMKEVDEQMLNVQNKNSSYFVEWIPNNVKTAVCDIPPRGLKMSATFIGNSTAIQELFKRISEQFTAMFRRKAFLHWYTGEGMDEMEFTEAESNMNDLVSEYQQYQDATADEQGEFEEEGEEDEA
Sequence of Herg receptors (Q12809 whole entry): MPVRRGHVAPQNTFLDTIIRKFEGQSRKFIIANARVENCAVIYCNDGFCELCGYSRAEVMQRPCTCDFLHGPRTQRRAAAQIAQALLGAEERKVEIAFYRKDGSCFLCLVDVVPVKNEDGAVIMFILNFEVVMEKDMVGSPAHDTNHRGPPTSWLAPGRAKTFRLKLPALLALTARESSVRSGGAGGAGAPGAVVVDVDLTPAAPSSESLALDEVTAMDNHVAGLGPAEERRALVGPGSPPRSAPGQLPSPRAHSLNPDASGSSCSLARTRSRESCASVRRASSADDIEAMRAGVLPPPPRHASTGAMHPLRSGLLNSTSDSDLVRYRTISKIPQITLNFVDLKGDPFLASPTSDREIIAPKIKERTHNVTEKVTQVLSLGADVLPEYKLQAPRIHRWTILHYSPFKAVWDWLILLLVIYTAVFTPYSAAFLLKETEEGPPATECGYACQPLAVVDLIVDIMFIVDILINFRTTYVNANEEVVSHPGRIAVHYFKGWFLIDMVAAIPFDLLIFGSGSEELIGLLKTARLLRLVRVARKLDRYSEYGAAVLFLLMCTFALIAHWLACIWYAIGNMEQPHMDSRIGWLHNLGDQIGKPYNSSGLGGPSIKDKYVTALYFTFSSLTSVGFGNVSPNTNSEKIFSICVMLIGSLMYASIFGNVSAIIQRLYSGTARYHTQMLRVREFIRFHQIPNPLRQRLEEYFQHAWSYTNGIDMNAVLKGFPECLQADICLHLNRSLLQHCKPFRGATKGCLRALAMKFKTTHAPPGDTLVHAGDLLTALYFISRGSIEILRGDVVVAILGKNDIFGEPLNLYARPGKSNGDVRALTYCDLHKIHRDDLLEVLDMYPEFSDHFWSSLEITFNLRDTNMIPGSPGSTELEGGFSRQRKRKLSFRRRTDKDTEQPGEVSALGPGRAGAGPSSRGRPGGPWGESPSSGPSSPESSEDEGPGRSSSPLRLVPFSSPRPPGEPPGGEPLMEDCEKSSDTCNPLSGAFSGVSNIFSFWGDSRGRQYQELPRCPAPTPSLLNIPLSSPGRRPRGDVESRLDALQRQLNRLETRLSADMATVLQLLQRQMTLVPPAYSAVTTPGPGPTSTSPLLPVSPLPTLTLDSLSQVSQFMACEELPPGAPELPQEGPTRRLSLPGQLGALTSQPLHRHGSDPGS

For `COc1cc(C(=O)/C(C)=C/c2ccc3c(ccn3CCO)c2)cc2c1OCO2` [Example 2, E-2-Methyl-3-[1-(2-hydroxyethyl)indol-5-yl]-1-(3-methoxy-4,5-methylenedioxyphenyl)propenone], the melting point (as a rule, the temperature of the solid-liquid transition) amounted to 83 °C. Further, the “C51 colon Tumor necrosis In vivo (grade, scale 0 to 5)” value in data set [1] is reported as 5 (considerable, >75%). The molecule further gave an IC50 at Herg receptors of more than 30000 nM. Further, the IC50 in the data set with HDMEC cells lay in the range of 0.22 to 0.61 nM. For the same molecule, the IC50 with HeLa cells lay in the range of 1.23 to 1.62 nM. Moreover, the Ames result in the data set “Ames test (mutagenicity)” was “negative”. At Tubulin, this molecule displayed an IC50 of 600 nM.
The molecule `COc1ccc(OC)c(C(=O)/C(C)=C/c2ccc3c(ccn3CCO)c2)c1` [Example 3, E-2-Methyl-3-[1-(2-hydroxyethyl)-1-H-indol-5-yl]-1-(2,5-dimethoxyphenyl)propenone] showed a melting point of 112 °C. Also, in the data set “Ames test (mutagenicity)”, the Ames entry was “negative”. This molecule came in with an IC50 on Tubulin of 830 nM.
Molecule `COc1cc(C(=O)/C(C)=C/c2ccc3c(ccn3CCO)c2)cc(OC)c1OC` [Example 1, E-2-Methyl-3-[1-(2-hydroxyethyl)indol-5-yl]-1-(3,4,5-trimethoxyphenyl)propenone] displayed a melting point of 119 °C. Besides, in the data set with HDMEC cells, the IC50 was in the range of 0.97 to 3.29 nM. Further, in the data set with HeLa cells, the IC50 lay in the range of 3.48 to 3.75 nM. Also, the Ames result in the data set “Ames test (mutagenicity)” was “negative”. Further, the IC50 against Tubulin worked out at 800 nM.
